Assay results: patent US20060135501A1, “Piperidinyl-thiazole carboxylic acid derivatives as angiogenesis inhibitors” (priority 2002, published 2006)
“And” between values parts separate entries of the source, which are not always exact repeats. Identical values can stand only once.

Experiments:
rhVEGF165-biotin = target: T1, rhVEGF165-biotin (Homo sapiens, UniProt P15692); assay: VEGF-Binding ELISA (dose-response)
T1 sequence (P15692 27-191 isoform P15692-4): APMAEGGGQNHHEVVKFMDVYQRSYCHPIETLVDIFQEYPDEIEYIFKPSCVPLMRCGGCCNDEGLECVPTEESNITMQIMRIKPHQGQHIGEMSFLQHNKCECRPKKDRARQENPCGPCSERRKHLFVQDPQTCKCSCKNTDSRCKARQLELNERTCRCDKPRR
Procedure: The potency of test substances as a VEGF-neutralising moiety is measured in an ELISA format. This assay measures the solution-phase interaction between rhVEGF165-biotin and test sample. Unbound VEGF165-biotin is then immobilised on a solid-phase anti-hVEGF antibody (R&D systems MAB293). The biotin signal is detected with streptavidin-alkaline phosphatase, which gives a colorimetric signal when incubated with p-nitrophenyl phosphate. Plates are read in a spectrophotometer at 405 nm.
(§1) Any test compound that binds to VEGF165-biotin and prevents it from binding to the antibody will lower the color signal and be recognized as a “hit”. Hits were defined as compounds that show>60% inhibition.
VEGF165-biotin+assay buffer ? 0% inhibition
Soluble VEGF receptor (sflt @ 4 nM) ? 70% inhibition
(§2) The primary screening of all library compounds was done at a compound concentration of 50 μM, followed by measuring dose-response effects of “hits” between 0.05 and 500 μM for the calculation of IC50 values.
The compounds were dissolved in DMSO and it was shown that the solvent has no effect on the assay at this concentration.

VEGF = target: T2, VEGF (Homo sapiens, UniProt P15692); assay: Initial medium throughput ELISA assay for inhibition of VEGF (primary screening); type: binding; settings: initial assessment, primary screening at compound concentration of 50 μM, repeats listed; for Inhibition (%): 50 µM
T2 sequence (P15692 27-191 isoform P15692-4): T1 sequence (P15692 27-191 isoform P15692-4)
Procedure: Initially the compounds were assayed for inhibition of VEGF in a medium throughput ELISA assay before detailed assessment in the HUVEC and VEGF binding assays in examples in 9 and 10. The data from this initial assessment is presented in table 5 in the column labelled “Inhibition %”.
as §1, §2

[1] = test system: human umbilical vein endothelial cells (HUVEC); assay: HUVEC proliferation assay co-stimulated with rhVEGF; type: cell-based
Procedure: The HUVEC assay measures the potency of test substances to inhibit in vitro proliferation of human umbilical vein endothelial cells (HUVEC) when co-stimulated with recombinant human vascular endothelial growth factor (rhVEGF).
HUVEC are grown under defined conditions (EGM-2 medium, 37° C., 5% CO2 and 95% humidity). They are seeded into 48-well plates using EBM medium with only 1% serum and incubated for 24 h. This is to ensure that cells are not stimulated before treatment with VEGF and test compound.
Test compounds are diluted in medium to concentrations between 0.05 and 50 μM and dosed together with VEGF165 at 12 ng/ml. This VEGF concentration was determined in a VEGF-dose-response curve to be just sub-optimal for maximum cell proliferation. Cells are incubated for 48 h at above conditions and viable cell density is measured using a tetrazolium compound (MTS). Viable cells reduce MTS into a soluble formazan product, which has an absorbance maximum at 490 nm. The absorbance is directly proportional to cell density.
EBM+1% serum (no VEGF) ? Minimum or Blank
EBM+1% serum (12 ng/ml) ? Maximum

[2] = Homo sapiens, HUVEC, 48 h, Table 5, VEGF165 at 12 ng/ml, MTS, repeats listed
[3] = Table 5, VEGF165 at 12 ng/ml, 48 h, MTS, repeats listed
[4] = Table 6, first test (unmarked value)
[5] = Homo sapiens, HUVEC, Table 6, first test (unmarked value)

Structure (SMILES) | IC50 (rhVEGF165-biotin; Table 5, repeats listed) | inhibition at 50 µM (VEGF) | IC50 [1, 2] | also measured
COc1ccc(C(N)=O)cc1NC(=O)c1csc(C2CCN(C(=O)c3nnc4cc(C)nn4c3C)CC2)n1 [Compound 1506-00581, N-[5-(aminocarbonyl)-2-methoxyphenyl]-2-{1-[(4,7-dimethylpyrazolo[5,1-c][1,2,4]triazin-3-yl)carbonyl]-4-piperidinyl}-1,3-thiazole-4-carboxamide] | 4.4 µM and 5 µM | 88% | 30 µM | IC50 [1, 3]: 31 µM
COc1ccc(C(N)=O)cc1NC(=O)c1csc(C2CCN(C(=O)c3cnn(-c4ccccc4)c3)CC2)n1 [Compound 1506-08772] | 54 µM and 126 µM | 91% | 25 µM | 
COc1ccc(C(N)=O)cc1NC(=O)c1csc(C2CCN(C(=O)NCCC3=CCCCC3)CC2)n1 [Compound 1506-07554] | 142 µM |  | 35 µM | 
COc1ccc(C(N)=O)cc1NC(=O)c1csc(C2CCN(C(=O)c3c(-c4ccccc4)noc3C)CC2)n1 [Compound 1506-00404] | 153 µM |  | 10.4 µM | 
COc1ccc(C(N)=O)cc1NC(=O)c1csc(C2CCN(C(=O)c3ccccc3C(F)(F)F)CC2)n1 [Compound 1506-03388] | 6.6 µM | 93% | 23 µM | Inhibition (%) (VEGF): 87% and 90%
COc1ccc(C(N)=O)cc1NC(=O)c1csc(C2CCN(C(=O)c3cc4ccccc4o3)CC2)n1 [Compound 1506-01284, N-[5-(aminocarbonyl)-2-methoxyphenyl]-2-[1-(1-benzofuran-2-ylcarbonyl)-4-piperidinyl]-1,3-thiazole-4-carboxamide] | 11 µM and 13.5 µM | 85% | 10.1 µM | IC50 [1, 3]: 12.6 µM
NC(=O)c1ccc(Cl)c(NC(=O)c2csc(C3CCN(C(=O)Cc4ccccc4Cl)CC3)n2)c1 [Compound 1633-00375] |  |  |  | IC50 (rhVEGF165-biotin; Table 6, **tested after re-synthesised, $solubility problems): 9 µM; IC50 (rhVEGF165-biotin; [4]): 5 µM; IC50 ([1]; Homo sapiens, HUVEC, Table 6, **tested after re-synthesised, $solubility problems): 17 µM; IC50 [1, 5]: 0.448 µM
COc1ccc(C(N)=O)cc1NC(=O)c1csc(C2CCN(C(=S)Nc3ccc(N(C)C)cc3)CC2)n1 [Compound 1506-06813, N-[5-(aminocarbonyl)-2-methoxyphenyl]-2-[1-({[4-(dimethylamino)phenyl]amino}carbonothioyl)-4-piperidinyl]-1,3-thiazole-4-carboxamide] | 7.3 µM and 1.5 µM | 88% | 9.7 µM | IC50 [1, 3]: 8.2 µM
COc1ccc(C(N)=O)cc1NC(=O)c1csc(C2CCN(C(=O)c3ccc(OC)c(OC)c3OC)CC2)n1 [Compound 1506-03211] | 132 µM |  |  | 
COc1ccc(C(N)=O)cc1NC(=O)c1csc(C2CCN(C(=O)Cc3ccc(F)cc3)CC2)n1 [Compound 1506-01112] | 16.7 µM |  | 26 µM | 
CC#CCOC(=O)N1CCC(c2nc(C(=O)Nc3cc(C(N)=O)ccc3OC)cs2)CC1 [Compound 1506-07095] | 173 µM |  |  | 
COc1ccc(C(N)=O)cc1NC(=O)c1csc(C2CCN(C(=O)C#Cc3ccccc3)CC2)n1 [Compound 1506-01461, N-[5-(aminocarbonyl)-2-methoxyphenyl]-2-[1-(3-phenyl-2-propynoyl)-4-piperidinyl]-1,3-thiazole-4-carboxamide] | 4 µM | 88% | 11 µM | Inhibition (%) (VEGF): 75% and 83%
NC(=O)c1ccc(Cl)c(NC(=O)c2csc(C3CCN(C(=O)CCc4ccco4)CC3)n2)c1 [Compound 1633-00377] |  |  |  | IC50 (rhVEGF165-biotin; [4]): 5 µM; IC50 [1, 5]: 0.222 µM
COc1ccc(C(=O)N2CCC(c3nc(C(=O)Nc4cc(C(N)=O)ccc4OC)cs3)CC2)cc1 [Compound 1506-03560] | 3.6 µM |  | 16.4 µM | 
COc1ccc(C(N)=O)cc1NC(=O)c1csc(C2CCN(C(=O)Cc3ccccc3Cl)CC2)n1 [Compound 1506-03737, N-[5-(aminocarbonyl)-2-methoxyphenyl]-2-{1-[(2-chlorophenyl)acetyl]-4-piperidinyl}-1,3-thiazole-4-carboxamide] |  | 60% | 9 µM | Inhibition (%) (VEGF): 70% and 74%
COc1ccc(C(N)=O)cc1NC(=O)c1csc(C2CCN(C(=O)N3CCN(c4ccccn4)CC3)CC2)n1 [Compound 1506-08218, N-[5-(aminocarbonyl)-2-methoxyphenyl]-2-(1-{[4-(2-pyridinyl)-1-piperazinyl]carbonyl}-4-piperidinyl)-1,3-thiazole-4-carboxamide] | 14.8 µM | 52% | 15.4 µM | Inhibition (%) (VEGF): 60% and 62%
COCCOCCOCC(=O)N1CCC(c2nc(C(=O)Nc3cc(C(N)=O)ccc3OC)cs2)CC1 [Compound 1506-02159] | 128 µM |  |  | 
COc1ccc(C(N)=O)cc1NC(=O)c1csc(C2CCN(C(=O)c3c(F)cccc3Cl)CC2)n1 [Compound 1506-03039] | 105 µM |  | 4.2 µM | 
COc1ccc(C(N)=O)cc1NC(=O)c1csc(C2CCN(C(=O)Cc3ccc(SC)cc3)CC2)n1 [Compound 1506-08674] | 11 µM |  |  | 
COc1ccc(C(N)=O)cc1NC(=O)c1csc(C2CCN(C(=O)COc3ccc(C)c(C)c3)CC2)n1 [Compound 1506-03914, N-[5-(aminocarbonyl)-2-methoxyphenyl]-2-{1-[(3,4-dimethylphenoxy)acetyl]-4-piperidinyl}-1,3-thiazole-4-carboxamide] | 4.5 µM | 77% | 17 µM | Inhibition (%) (VEGF): 70% and 81%
C=CCSc1ncccc1C(=O)N1CCC(c2nc(C(=O)Nc3cc(C(N)=O)ccc3OC)cs2)CC1 [Compound 1506-02331, 2-(1-{[2-(allylsulfanyl)-3-pyridinyl]carbonyl}-4-piperidinyl)-N-[5-(aminocarbonyl)-2-methoxyphenyl]-1,3-thiazole-4-carboxamide] | 6.5 µM |  | 22.8 µM | Inhibition (%) (VEGF): 43% and 73% and 79%
COc1ccc(C(N)=O)cc1NC(=O)c1csc(C2CCN(C(=O)C3C(C)(C)C3(C)C)CC2)n1 [Compound 1506-01638] | 71 µM and > 100 µM | 89% | 5.4 µM | IC50 [1, 3]: 6 µM
C=CCCOc1ccc(C(=O)N2CCC(c3nc(C(=O)Nc4cc(C(N)=O)ccc4Cl)cs3)CC2)cc1 [Compound 1633-00884] |  |  |  | IC50 (rhVEGF165-biotin; [4]): 30 µM; IC50 [1, 5]: 0.649 µM
COc1ccc(C(N)=O)cc1NC(=O)c1csc(C2CCN(C(=O)Cc3c[nH]c4ccccc34)CC2)n1 [Compound 1506-00935] | 29 µM |  |  | 
COc1ccc(C(N)=O)cc1NC(=O)c1csc(C2CCN(C(=O)c3ccc(OC(C)C)cc3)CC2)n1 [Compound 1506-04091] | 16 µM and 15.5 µM |  |  | 
COc1ccc(C(N)=O)cc1NC(=O)c1csc(C2CCN(C(=O)c3cc(OC)c4ccccc4c3)CC2)n1 [Compound 1506-01810] | 136 µM |  | 5.6 µM | 
NC(=O)Cc1ccc(Cl)c(NC(=O)c2csc(C3CCN(C(=O)CCc4ccco4)CC3)n2)c1 [Compound 1633-01861] |  |  |  | IC50 (rhVEGF165-biotin; [4]): 13 µM; IC50 [1, 5]: 0.803 µM
